# Source: PubChem BioAssay (NCI)
# Several values for one entry are separate records, joined by “and”; a condition that tells them apart may be missing. Equal values may be shown once.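 Dose response: 5 concentrations. Exposure: 48 h. Format: 96-well plates. Endpoint: linear interpolation; highest concentration if not reached. GI50 is the concentration that inhibits growth by half. The concentration for full growth arrest is given as TGI.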
# System: MDA-MB-468 breast
# Assay: DTP human tumour cell line panel, 48 h
SMILES,GI50,TGI
CCCCCCCCCCCCCCCCCC1=NCCN1CCOC1=C(Cl)C(=O)c2ccccc2C1=O,1.64 µM,3.27 µM
CCc1ccc2c(c1)N(CCO)C1=C(C(=O)OC1)C2c1cccc(Br)c1 (stereo not drawn),0.164 µM,0.66 µM
Cc1ccc(/C=N\NC(=O)c2[nH]c3ccc(F)cc3c2-c2ccccc2)cc1,0.024 µM,0.0674 µM
CN=c1ccc2nc3ccc(N)cc3sc-2c1,2.9 µM,17.1 µM
O=S(=O)(Nc1cc(Sc2cccc3cccnc23)c(O)c2ccccc12)c1ccc(F)cc1,1.8 µM,4.08 µM
CN1C(=O)N(C)C2C1NN=c1s/c(=C\c3ccc(C(F)(F)F)cc3)c(=O)n12 (stereo not drawn),0.51 µM,26.2 µM
O=C1/C(=C/c2ccccc2[N+](=O)[O-])Cc2ccccc21,1.38 µM,3.03 µM
CN(C)CCCn1c(=O)c2ccccc2c2ccccc21,6.18 µM,20.1 µM
C/C(=C\c1ccc2ccccc2c1)[N+](=O)[O-],1.56 µM,3.06 µM
CCCCCCCCCCCCCCCCCC[n+]1ccc2c(C)c3c(c(C)c2c1)c1cc(O)ccc1n3CC,0.628 µM,4.11 µM
CCOc1ccccc1C(=O)N1CCN(c2cc(Cl)cc(Cl)c2)CC1,0.0292 µM,2.87 µM
O=C1CCC(N2Cc3cc(CNC(=O)C(F)(F)c4ccc(Cl)cc4)ccc3C2=O)C(=O)N1 (stereo not drawn),0.0481 µM,–
C#Cc1nc(/C=C/CCCCCCC(=O)NO)cs1,2.13 µM,8.65 µM
O=C(/C=C/c1cc2ccccc2[nH]c1=O)/C=C/c1cc2ccccc2[nH]c1=O,7.33 µM,15.5 µM
COc1ccc(-c2nc(Nc3cc(C)[nH]n3)c3ccccc3n2)cc1,3.12 µM,> 53.4 µM
O=C1OCC2=C1C(c1ccccc1)c1cc3c(cc1N2)OCO3 (stereo not drawn),0.027 µM,0.6 µM
CN1CCN(Cc2ccc(NC(=O)c3cncc(C#Cc4cnc(N)nc4)c3)cc2C(F)(F)F)CC1,0.684 µM,7.66 µM
CCCN(CCS(C)(=O)=O)Cc1ccc(-c2ccc3ncnc(Nc4ccc(OCc5cccc(F)c5)c(Cl)c4)c3c2)o1,0.0752 µM,0.877 µM
OCc1ccc(N2CCCC2c2ccccc2)cc1Cl (stereo not drawn),0.117 µM,0.448 µM
COc1ccc2cc1Oc1ccc(cc1)C[C@H]1c3c(cc4c(c3Oc3cc5c(cc3OC)CCN(C)[C@@H]5C2)OCO4)CCN1C,0.593 µM,2.31 µM
O=C1c2cccnc2C(=O)c2c1c(C(=O)NCCCN1CCCCC1)c1ccccn21,0.531 µM,1.89 µM
CO[C@H]1CC(O[C@@H]2/C(C)=C/C[C@@H]3C[C@@H](C[C@]4(C=C[C@H](C)[C@@H](C5CCCCC5)O4)O3)OC(=O)[C@@H]3C=C(C)[C@@H](O)[C@H]4OC/C(=C\C=C\[C@@H]2C)[C@]43O)O[C@@H](C)C1O[C@H]1C[C@H](OC)[C@@H](O)[C@H](C)O1 (stereo partly drawn),1.4 µM,3.01 µM
COc1cc2c(cc1OCCCn1c(-c3ccccn3)nc3ccccc31)N=C[C@@H]1CCCN1C2=O,1.94 µM,5.64 µM

SMILES,GI50,TGI
FC(F)(F)c1ccc(-c2cnc(-c3ncon3)nc2NC2CCCCCC2)cc1,48.5 µM,> 100 µM
O=C(Nc1ccc(OCc2nnc(-c3ccc(Cl)cc3)o2)c(F)c1)Nc1ccc(Cl)c(C(F)(F)F)c1,1.8 µM,7.37 µM
C=CC(=O)Nc1cccc(Oc2nc(Nc3ccc(N4CCN(C)CC4)cc3)nc3ccsc23)c1,0.267 µM and 0.57 µM,1.75 µM and 3.36 µM
O=C1OCC2=C1C(c1ccc(Cl)c(Cl)c1)c1cc3c(cc1N2CCO)OCCO3 (stereo not drawn),0.095 µM,0.394 µM
C[C@@H]1CN(Cc2ccc(F)cc2)[C@@H](C)CN1C(=O)c1cc2c(C(=O)C(=O)N(C)C)cn(C)c2cc1Cl,13.3 µM,45 µM
N#Cc1c(N2CCOCC2)nc(=S)[nH]c1-c1ccco1,3.51 µM,> 100 µM
Nc1nc(OCc2ccccc2)c2[nH]cnc2n1,28.1 µM and 34.9 µM,207 µM
COc1ccc(-c2[nH]c3ccccc3c2-c2ccc(OC)cc2)cc1,2.43 µM,7.18 µM
COc1ccc2c(c1)N(CCO)C1=C(C(=O)OC1)C2c1cccc(F)c1 (stereo not drawn),0.202 µM,–
CN1CCN(C(=O)c2cc(-c3ccc4ncnc(N5CCc6cc(F)c(Cl)cc65)c4c3)cnc2N)CC1,0.12 µM,0.365 µM
C1CCC([PH+](C2CCCCC2)C2CCCCC2[PH+](C2CCCCC2)C2CCCCC2)CC1.[Au].[CH-]1CCCCC1CC1CCCC[N-]1 (stereo not drawn),0.161 µM,0.631 µM
c1cnn2ncc(-c3ccnc(NCCCN4CCOCC4)n3)c2c1,3.45 µM,10 µM
O=S(=O)(c1ccc(Cl)cc1)C(Cl)(Cl)Cl,1.44 µM,5.5 µM
O=C1c2c(c3c4ccccc4[nH]c3c3ccc4ccccc4c23)C(=O)N1CCN1CCNCC1,1.65 µM,3.3 µM
CNCCCNCCCCNCCCN1C(=O)c2ccc3c4c(ccc(c24)C1=O)C(=O)N(CCCNCc1ccccc1OC)C3=O,1.89 µM,11.7 µM
CC(C)NCCCn1c(Sc2cc3c(cc2I)OCO3)nc2c(N)ncnc21,0.0827 µM,3.62 µM
OCC1OC(n2cnc3c(N/N=C\c4ccccn4)ncnc32)C(O)C1O (stereo not drawn),0.187 µM,0.508 µM
CC(C)=CCc1c(O)c(CC=C(C)C)c2c(c1O)C(=O)C1=C[C@@H]3C[C@H]4C(C)(C)O[C@@](C/C=C(\C)C(=O)O)(C3=O)[C@@]14O2,24.1 µM,48.6 µM
CN[C@@H](C)C(=O)N[C@H](C(=O)N1CCC[C@H]1C(=O)Nc1sc(-c2ncco2)nc1-c1ccccc1)C1CCCCC1,11.4 µM,35.7 µM
CC(C)C[C@H](NC(=O)CNC(=O)c1cc(Cl)ccc1Cl)B1OC(=O)CC(CC(=O)O)(C(=O)O)O1 (stereo partly drawn),0.017 µM,0.0385 µM
O=C(/C=C\c1cccc([N+](=O)[O-])c1)/C=C/c1cccc([N+](=O)[O-])c1,3.43 µM,55.5 µM
CC1=C2[C@@H](CC1)[C@]1(C)O[C@@](c3ccccc3)(C[C@H]1OC(=O)CO)[C@H]2OC(=O)/C=C/c1ccccc1,17.9 µM,46 µM
